Laboratory results taken from paper PMC6279743, “A small molecule ApoE4-targeted therapeutic candidate that normalizes sirtuin 1 levels and improves cognition in an Alzheimer’s disease mouse model” (Scientific Reports, 2018).
Where two headings read alike, the source gives them in different places.

How the values were obtained:
SirT1 mRNA = test system: SirT1 mRNA; parameters: method as in PMID 26791201; settings: original studies, A172-E4 cells; cited from earlier work
[1] = Pharmacokinetics after subcutaneous (SQ) injection in mice; format: in vivo
patients = settings: cited from earlier work
[2] = test system: SirT1 levels in A172-E4 cells; assay: Confirmation assay in A172-E4 cells, SirT1 AlphaLISA; format: cell-based, human; settings: 50 μM A03 vs DMSO
Experimental: (§1) Jesus Campagna, Patricia Spilman, Barbara Jagodzinska, Dongsheng Bai, Asa Hatami, Chunni Zhu, Tina Bilousova, Michael Jun, Chris Jean Elias, Johnny Pham, Gregory Cole, Mary Jo LaDu, Michael E. Jung, Dale E. Bredesen, and […]
(§2) Confirmation assay in A172-E4 cells. Befo re transfection, A172 human glioblastoma cells were cultured in Dulbecco’s Modified Eagle Medium (DMEM) supplemented with 10% fetal bovine serum and 1% penicillin/streptomycin in a 37 °C incubator in an atmosphere of 5% CO2 in air. The day of transfection, the media was replaced with Opti-MEM reduced serum medium. Transient transfection with human ApoE4 and ApoE3 constructs in pcDNA3 mammalian expression vectors or empty vector (control) was performed in 96-well plates using a 1:1 mixture of two transfection reagents - Lipofectamine 2000 and siPORT amine - in Opti-MEM as previously described13. After 4 hr incubation with transfection reagents, medium was exchanged for fresh […]
(§3) Cells were incubated with the compound for 60 hrs, then cell culture medium (for sAPPα) and cells (lysates for SirT1) were harvested and levels of sAPPα and SirT1

[3] = test system: SirT2 levels in N2a-E4 cells; assay: SirT2 sandwich ELISA in N2a-E4 cells; format: cell-based, murine; settings: A03 at 5 or 50 μM vs DMSO
[4] = test system: sAPPα levels in A172-E4 cells; assay: Confirmation assay in A172-E4 cells, sAPPα AlphaLISA; format: cell-based, human; settings: 50 μM A03 vs DMSO, cell culture medium
Experimental: as §1, §2, §3

[5] = Parallel Artificial Membrane Permeability Assay (PAMPA; IAM column); format: in vitro ADME
Experimental: We used L(+)tartaric acid to isolate the L-enantiomer salt and D(-) tartaric acid to isolate the D-enantiomer salt, followed by neutralization of the salt with NaOH and re-crystallization to obtain the enantiomers. Enantiomer abundance (Supplementary Fig. S4) was determined by HPLC using a Chiralpak IB column. Isopropanol (0.2% diethylamine)/hexanes was used for gradient elution with 5–50% isopropanol (0.2% diethylamine) for 11 min, a Chiralpak IB column, and with sample (1 μL, 1.25 mg/mL) injection, 220 nm wavelength detection, and a flow rate of 1 mL/min. […] The L-alanine analog co-elutes with enantiomer-1 while the D-alanine analog co-elutes with enantiomer-2. Analysis of the enantiomers and A03 in the Parallel Artificial Membrane Permeability Assay (PAMPA) was performed and is described in Supplementary Methods. […]
PAMPA. An IAM.PC.DD2 Regis Technologies analytical (10 cm x 4.6 mm) column wherein phospholipid is bonded on 10 μm, 300 Å, spherical aminopropyl silica and end capped with C10 and C3 amides was used to determine membrane permeability of A03, E1 and E2. An isocratic method was used with a mobile phase comprising acetonitrile:PBS (pH 5.6) equal to 35:65, an injection volume of 5 µL, and a flow rate of 1 mL/min. The parameters determined are Tr = retention time of compound; KIAM= (Tr-T0)/T0; T0= is the delay time of the column, determined by use of 100 µg/mL citric acid) and was T0= 1.24 min; and (KIAM/MW4)*10-(10). The molecular weight of all three compounds was 255.74 g/mol. […]
Supplementary Fig. S1. […] (a) Transient transfection with either
ApoE3 or E4 decreased SirT1 levels as compared to empty vector (Pc/DMSO), but the decrease was greater with […]

N2a-E4 cells = assay: Lysate protein concentration (Bradford assay); format: cell-based, murine; settings: A03 at 5 or 50 μM
Experimental: Compound in medium (50 µL, 2X) was loaded into a 96-well plate, then 4 × 10^4 cells were added to each well; 24 hrs later the medium was removed and cells lysed. Lysate protein concentration was determined using the Bradford assay according to the manufacturer’s instructions. SirT1 was determined in lysates using the SirT1 AlphaLISA as described above.

E4FAD mice = assay: Novel Object Recognition (NOR) in 56-day study; format: in vivo; settings: total time with both objects, vs E4FAD Veh
Experimental: (§4) E4FAD mice were 10–12 mo and NTg mice 7–9 mo at the start of the study.
All mice underwent NOR testing the last week of dosing. Mice were acclimated to a 30 × 40 cm arena for 15 minutes 24 hrs before acquisition. Individual mice underwent acquisition by exposure to two identical objects for 10 min. and then were returned to the home cage overnight. For the probe, individual mice were returned to the arena wherein one of the objects had been changed. Mice were allowed to explore the objects for 10 minutes. Both the acquisition and probe were recorded on tripod-mounted video cameras. The number of discreet interactions with each object (nose within 1 cm of the object) and time spent with each object were scored by personnel blind to the treatment and genotype of the mice; scores were spot-checked by a second scorer. The discrimination index (DI) was calculated by subtracting time spent (or number of interactions) with the familiar object (TF) from time spent (or number of interactions) with the novel object (TN), and then dividing that value by the sum of those two values [DI = (TN − TF)/(TN + TF)][73].

[6] = test system: APP cleavage products in E4FAD mice; assay: Second oral 56-day study, APP-derived cleavage products in hippocampus; format: in vivo; settings: oral 56 days, vs vehicle
Experimental: as §4
Mice were euthanized and blood/tissues collected 2 hrs after dosing on Day 56 by the method described above for PK. Hip and FrCx were collected for analysis of SirT1, sAPPα, and Aβ1-42 levels by AlphaLISA. For Aβ1-42 the Perkin Elmer kit AL276C was used. Protein concentrations were determined using the Bradford protein assay. The sAPPα and sAPPβ AlphaLISAs were similar to the SirT1 AlphaLISA (see Supplementary Fig. S3) but the former uses anti-sAPPα antibody AF1168 and 2B3-biotinylated antibodies and the latter an anti-sAPPβ antibody (IBL Cat. #18957) and an anti-N-terminal APP antibody (R&D Systems AF1168) instead of anti-SirT1 antibodies. Brain tissue and plasma were sent to IAS for A03 level analysis.

CC(N)C(=O)OC(C)(C)Cc1ccc(Cl)cc1 (stereo not drawn) [A03, alaproclate]
SirT1 mRNA (SirT1 mRNA): increase in SirT1 mRNA | factor by which brain levels after SQ exceed those after oral delivery ([1]; 10 mg/Kg SQ vs 10 mg/Kg oral): 4 to 5 | AUC plasma ([1]; mice, SQ 10 mg/kg, unit as printed in Fig. 4d legend): 1520 ng·h/mL | Tmax ([1]; mouse, brain, sc, mice, SQ 10 mg/kg, n = 1): 2 h | Cmax ([1]; mouse, brain, sc, mice, SQ 10 mg/kg, n = 1, read-out: Cmax in brain): ~2600 ng/g | Cmax ([1]; mouse, brain, subcutaneous, mice, SQ 10 mg/Kg, read-out: Cmax in brain as molar concentration): ~10 µM | AUC ([1]; mouse, plasma, subcutaneous, mice, SQ 10 mg/kg): 1520 ng·h/mL | Liver function in Phase 1 trial for depression (patients; human): some liver function changes were seen | Toxicity in second clinical study (patients; human): no toxicity up to 200 mg BID | Global scores in moderate to advanced AD patients (patients; small clinical studies): some improvements in global scores | SirT1 levels in ApoE4-transfected A172 cells [2]: significantly increased SirT1 levels | SirT2 (normalized to protein) [3]: not significantly altered | sAPPα levels in A172-E4 cells [4]: significant increase | retention time (Tr) in PAMPA ([5]; IAM.PC.DD2 column, acetonitrile:PBS (pH 5.6) 35:65): 3.31 | KIAM ([5]; KIAM = (Tr-T0)/T0, T0 = 1.24 min): 1.67 | (KIAM/MW^4) * 10^−(10) ([5]; MW 255.74 g/mol): 3.90 | Protein concentration in cell lysates (viability surrogate) (N2a-E4 cells): did not increase protein concentration | Exploration time in NOR (E4FAD mice): similar | Aβ1-42 in the Hip [6]: lower than E4FAD Veh, but not significantly so | sAPPα in the Hip [6]: only slightly higher | sAPPβ in the Hip [6]: not changed
